Experimental data taken from patent US20050176115A1, “Process for the production of methionine” (Nippon Soda Co., Ltd., priority 2002, published 2005).
Read-outs that look alike come from different tables or passages of the source.

Columns and labels:
[1] = ammonia present at an excessive amount in mole ratio to methionine; 5-50° C.; FIG. 1
From the text: About 20 wt % of methionine also can be dissolved in water by addition of inorganic alkali such as NaOH and KOH, while in this case it is required to neutralize with the use of acid to obtain a product in the form of salt-free solid of methionine, leading to a problem that an additional operation to remove a lot of inorganic salt waste generated from the neutralization is required.

[2] = by addition of inorganic alkali such as NaOH and KOH
[3] = cited from earlier work

- solubility of methionine [1]: increases
- amount of methionine that can be dissolved in water [2]: About 20 wt %
Compound: CSCC[C@H](N)C(=O)O (racemic) [methionine]
- water solubility ([3]; at 25° C.): 3.38 g/100 g·H2O
- water solubility ([3]; at 50° C.): 6.07 g/100 g·H2O
